Experimental data: ChEMBL document CHEMBL1201862, “PubChem BioAssay data set” (2004)
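Results reflect a 48-hour exposure of cells in 96-well plates to compound at five concentrations. Here, GI50 denotes the concentration required for 50% inhibition of growth.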 Active and inactive are the calls of the source. Cut-off read from the data, not from the text of the source: active = GI50 up to about 1.1 µM and inactive = higher.

Assays:
Assay in all cases: NCI anticancer screen, dose series, 48 h
KM12 = system: KM12
LOX IMVI = system: LOX IMVI
NCI-H460 = system: NCI-H460
HCT-15 = system: HCT-15
SN12C = system: SN12C
SK-OV-3 = system: SK-OV-3
IGROV-1 = system: IGROV-1
CCRF-CEM = system: CCRF-CEM
TK-10 = system: TK-10
COLO 205 = system: COLO 205
U-251 = system: U-251
ACHN = system: ACHN
EKVX = system: EKVX
HL-60 = system: HL-60
SK-MEL-28 = system: SK-MEL-28
SF-268 = system: SF-268
NCI-H226 = system: NCI-H226
NCI-H522 = system: NCI-H522

Row | Compound | GI50 (KM12) | GI50 (LOX IMVI) | GI50 (NCI-H460) | GI50 (HCT-15) [µM] | GI50 (SN12C) | GI50 (SK-OV-3) | GI50 (IGROV-1) | GI50 (CCRF-CEM) | GI50 (TK-10) | GI50 (COLO 205) | GI50 (U-251) | GI50 (ACHN) | GI50 (EKVX) | GI50 (HL-60) | GI50 (SK-MEL-28) | GI50 (SF-268) | GI50 (NCI-H226) | GI50 (NCI-H522)
1 | CC(C)(C)C1=CC(CCC(=O)Nc2ccccc2[N+](=O)[O-])=NC(S)N1 (configuration not stated) | > 100 µM (inactive) | > 100 µM (inactive) | > 100 µM (inactive) | > 100 | > 100 µM (inactive) | > 100 µM (inactive) | > 100 µM (inactive) | > 100 µM (inactive) | > 100 µM (inactive) | > 100 µM (inactive) | > 100 µM (inactive) | > 100 µM (inactive) | > 100 µM (inactive) | > 100 µM (inactive) | > 100 µM (inactive) | > 100 µM (inactive) | > 100 µM (inactive) | –
2 | COc1ccc(/C=C2\CCc3ccccc3C2=O)cc1OC | 19.6 µM (inactive) | – | 34.8 µM (inactive) | 17.2 | 25.2 µM (inactive) | 18.7 µM (inactive) | 27.4 µM (inactive) | 24.8 µM (inactive) | 32.6 µM (inactive) | 19.5 µM (inactive) | 31 µM (inactive) | 24.5 µM (inactive) | 51.8 µM (inactive) | – | 25.3 µM (inactive) | 20.8 µM (inactive) | – | 17.1 µM (inactive)
3 | O=C1NC(=O)C2C1C1C=C3c4ccccc4N(c4ccccc4)C32[C@H]2C(=O)NC(=O)[C@@H]12 (some centres not stated) | > 100 µM (inactive) | > 100 µM (inactive) | > 100 µM (inactive) | > 100 | > 100 µM (inactive) | > 100 µM (inactive) | > 100 µM (inactive) | > 100 µM (inactive) | > 100 µM (inactive) | > 100 µM (inactive) | – | > 100 µM (inactive) | > 100 µM (inactive) | > 100 µM (inactive) | > 100 µM (inactive) | > 100 µM (inactive) | > 100 µM (inactive) | > 100 µM (inactive)
4 | CCc1c(OC(C)=O)c2c(NC3OC(COC(C)=O)C(OC(C)=O)C(OC(C)=O)C3OC(C)=O)nc(SC)nc2oc1=O (configuration not stated) | > 100 µM (inactive) | > 100 µM (inactive) | > 100 µM (inactive) | > 100 | > 100 µM (inactive) | > 100 µM (inactive) | > 100 µM (inactive) | > 100 µM (inactive) | > 100 µM (inactive) | > 100 µM (inactive) | > 100 µM (inactive) | > 100 µM (inactive) | > 100 µM (inactive) | > 100 µM (inactive) | – | – | > 100 µM (inactive) | –
5 | CC(C)(C)c1ccc2c(c1)S(=O)(=O)Nc1ccc(Cl)cc1NS(=O)(=O)c1cc(C(C)(C)C)ccc1OCCOCCOCCO2 | 75 µM (inactive) | > 100 µM (inactive) | 26 µM (inactive) | > 100 | 43.5 µM (inactive) | 33 µM (inactive) | 38 µM (inactive) | > 100 µM (inactive) | 37.5 µM (inactive) | > 100 µM (inactive) | 29.2 µM (inactive) | 42.1 µM (inactive) | 79.6 µM (inactive) | > 100 µM (inactive) | > 100 µM (inactive) | 31.1 µM (inactive) | 57.9 µM (inactive) | –
6 | O=[N+]([O-])c1ccc(Cl)c(C2SCc3nc4ccccc4n32)c1 (configuration not stated) | 29 µM (inactive) | – | 28.7 µM (inactive) | – | 43.6 µM (inactive) | 36.6 µM (inactive) | 46.2 µM (inactive) | 28 µM (inactive) | 64.6 µM (inactive) | 37.6 µM (inactive) | 41.8 µM (inactive) | 44.9 µM (inactive) | 42.4 µM (inactive) | 23.2 µM (inactive) | 40.6 µM (inactive) | 29.8 µM (inactive) | 24.1 µM (inactive) | 22.3 µM (inactive)
7 | O=C(NC1CCCC1=O)c1ccccc1 (configuration not stated) | > 100 µM (inactive) | – | > 100 µM (inactive) | – | > 100 µM (inactive) | > 100 µM (inactive) | > 100 µM (inactive) | > 100 µM (inactive) | > 100 µM (inactive) | – | > 100 µM (inactive) | > 100 µM (inactive) | > 100 µM (inactive) | > 100 µM (inactive) | > 100 µM (inactive) | > 100 µM (inactive) | 98.9 µM (inactive) | –
8 | CC(=O)Oc1ccc2c(c1)C(=O)c1nc(C)c(C)nc1C2=O | 59.3 µM (inactive) | 39.4 µM (inactive) | 30.8 µM (inactive) | 40.9 | 46.5 µM (inactive) | 71.8 µM (inactive) | 46.8 µM (inactive) | 35.4 µM (inactive) | > 100 µM (inactive) | 50 µM (inactive) | 51.6 µM (inactive) | 48.4 µM (inactive) | > 48.6 µM (inactive) | 24.6 µM (inactive) | 46.1 µM (inactive) | 94.2 µM (inactive) | 38.7 µM (inactive) | 50.6 µM (inactive)
9 | CN(C)CCn1cnc2ncccc2c1=O | > 100 µM (inactive) | > 100 µM (inactive) | > 100 µM (inactive) | – | > 100 µM (inactive) | > 100 µM (inactive) | > 100 µM (inactive) | > 100 µM (inactive) | > 100 µM (inactive) | > 100 µM (inactive) | > 100 µM (inactive) | > 100 µM (inactive) | > 100 µM (inactive) | – | > 100 µM (inactive) | > 100 µM (inactive) | > 100 µM (inactive) | > 100 µM (inactive)
10 | Brc1ccc(-c2cc3c(cc2C2SCCS2)OCO3)cc1 | 39.4 µM (inactive) | 0.359 µM (active) | 29.6 µM (inactive) | 29.7 | 29 µM (inactive) | 21.3 µM (inactive) | 37.2 µM (inactive) | 19.3 µM (inactive) | 31.5 µM (inactive) | 27.3 µM (inactive) | 29.7 µM (inactive) | 16.5 µM (inactive) | 10.7 µM (inactive) | 15.4 µM (inactive) | > 100 µM (inactive) | 26.9 µM (inactive) | 8.17 µM (inactive) | 10.9 µM (inactive)
11 | Cc1ccc(N2C(=O)/C(=C/c3ccc(N(CCC#N)CCC#N)cc3C)N=C2c2cc([N+](=O)[O-])ccc2Cl)cc1 | > 100 µM (inactive) | – | > 100 µM (inactive) | > 100 | > 100 µM (inactive) | > 100 µM (inactive) | > 100 µM (inactive) | > 100 µM (inactive) | > 100 µM (inactive) | > 100 µM (inactive) | > 100 µM (inactive) | > 100 µM (inactive) | – | > 100 µM (inactive) | > 100 µM (inactive) | > 100 µM (inactive) | > 100 µM (inactive) | > 100 µM (inactive)
12 | S=C1CNC(=S)CN1 | > 100 µM (inactive) | > 100 µM (inactive) | > 100 µM (inactive) | > 100 | > 100 µM (inactive) | > 100 µM (inactive) | > 100 µM (inactive) | > 100 µM (inactive) | > 100 µM (inactive) | > 100 µM (inactive) | > 100 µM (inactive) | > 100 µM (inactive) | – | > 100 µM (inactive) | > 100 µM (inactive) | > 100 µM (inactive) | > 100 µM (inactive) | > 100 µM (inactive)
13 | CNC(=O)C1CCc2nnc(-c3ccccc3)n21 (configuration not stated) | > 100 µM (inactive) | – | > 100 µM (inactive) | > 100 | > 100 µM (inactive) | > 100 µM (inactive) | > 100 µM (inactive) | > 100 µM (inactive) | > 100 µM (inactive) | > 100 µM (inactive) | > 100 µM (inactive) | > 100 µM (inactive) | 55.2 µM (inactive) | > 100 µM (inactive) | > 100 µM (inactive) | > 100 µM (inactive) | > 100 µM (inactive) | > 100 µM (inactive)
14 | CC(=O)O[C@H]1C(=O)[C@@]2(C)C(C(OC(=O)c3ccccc3)[C@]3(O)CC(OC(=O)C(O)C(NC(=O)c4ccccc4)c4ccc(C)cc4)C(C)=C1C3(C)C)[C@]1(OC(C)=O)CO[C@@H]1C[C@@H]2O (some centres not stated) | 0.0137 µM (active) | 0.033 µM (active) | 0.00826 µM (active) | 0.897 | 0.0545 µM (active) | 0.0117 µM (active) | 0.0215 µM (active) | 0.0147 µM (active) | 3.08 µM (inactive) | 0.0153 µM (active) | 0.0197 µM (active) | 0.466 µM (active) | 8.95 µM (inactive) | 0.0069 µM (active) | – | 3.64 µM (inactive) | – | 0.0108 µM (active)
15 | Nc1nc(=O)n([C@@H]2CC[C@H](CO)O2)cc1F | > 100 µM (inactive) | > 100 µM (inactive) | > 100 µM (inactive) | > 100 | > 100 µM (inactive) | > 100 µM (inactive) | – | > 100 µM (inactive) | > 100 µM (inactive) | > 100 µM (inactive) | > 100 µM (inactive) | > 100 µM (inactive) | > 100 µM (inactive) | > 100 µM (inactive) | > 100 µM (inactive) | > 100 µM (inactive) | > 100 µM (inactive) | > 100 µM (inactive)
16 | CC(C)=CC(=O)Cc1nc2ccc([N+](=O)[O-])cc2[nH]c1=O | – | > 100 µM (inactive) | > 100 µM (inactive) | > 100 | > 100 µM (inactive) | > 100 µM (inactive) | > 100 µM (inactive) | – | > 100 µM (inactive) | > 100 µM (inactive) | – | > 100 µM (inactive) | > 100 µM (inactive) | 40.8 µM (inactive) | > 100 µM (inactive) | > 100 µM (inactive) | > 100 µM (inactive) | 23.9 µM (inactive)
17 | Nc1ncn(C2C=C(CO)C(O)C2O)c(=O)n1 (configuration not stated) | > 100 µM (inactive) | – | 35 µM (inactive) | 54.2 | 32.4 µM (inactive) | > 100 µM (inactive) | 84.5 µM (inactive) | – | > 100 µM (inactive) | 29.3 µM (inactive) | > 100 µM (inactive) | 46.5 µM (inactive) | > 100 µM (inactive) | 31.6 µM (inactive) | > 100 µM (inactive) | 53 µM (inactive) | > 100 µM (inactive) | 37.2 µM (inactive)
